Some test systems named below: DU-145 prostate; K-562 leukemia; LOX IMVI melanoma; RPMI-8226 leukemia; SK-MEL-2 melanoma; SNB-19 CNS; T-47D breast; UO-31 renal.
Holding throughout (assay): growth of human tumour cells (NCI), 48 h

The structures appear in SMILES notation. Values joined by “and” are separate entries in the source; they are usually repeats but may differ in a detail not shown here. Equal values may be shown once.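 Step 1: Grow cells in 96-well plates. Step 2: Expose to compound for 48 hours at 5 concentrations. Step 3: Interpolate endpoints linearly; if unreached, use highest concentration. GI50: concentration for 50% inhibition of growth. The concentration for full growth arrest is given as TGI.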 A value given as a limit tells only on which side of the number the result lay.

`CC(=O)N[C@@H]1CCC[C@H](C(=O)Nc2cc(-c3cnn4c3CC(C)(C)C4)c(Cl)cn2)C1`: the GI50 with DU-145 prostate is 0.0102 µM; with K-562 leukemia, 0.0212 µM; in the test with LOX IMVI melanoma it was under 0.01 µM; in the test with RPMI-8226 leukemia, 0.0158 µM; with SK-MEL-2 melanoma it was 0.0121 µM; with SNB-19 CNS it was under 0.01 µM. Also, the GI50 with T-47D breast was 0.0101 µM; in the test on UO-31 renal it was 0.0241 µM. Besides, the TGI in the test with DU-145 prostate was over 100 µM; in the test with K-562 leukemia, over 100 µM; in the test with LOX IMVI melanoma it was over 100 µM; with RPMI-8226 leukemia, 0.0703 µM; with SK-MEL-2 melanoma, 0.041 µM; in the test on SNB-19 CNS it was over 100 µM. This molecule also yielded a TGI in the test with T-47D breast of 0.719 µM.
As for `COc1cc(OC)cc(N2CCN(C(=O)Nc3nc4cc(F)ccc4nc3OC)CC2)c1`, the GI50 is 0.0438 µM and 0.0429 µM and 0.0403 µM in the test on DU-145 prostate; 0.0184 µM and 0.0375 µM and 0.0304 µM in the test with K-562 leukemia; 0.0506 µM and 0.0658 µM and 0.0352 µM in the test on LOX IMVI melanoma; < 0.0182 µM and 0.0386 µM and 0.0416 µM in the test on RPMI-8226 leukemia; 0.277 µM and 0.0666 µM and 0.0306 µM in the test with SK-MEL-2 melanoma; 0.0418 µM and 0.045 µM and 0.0431 µM in the test on SNB-19 CNS. Moreover, the GI50 in the test on T-47D breast is 0.832 µM; with UO-31 renal, 0.0681 µM and 0.0692 µM and 0.0336 µM. Moreover, the TGI in the test with DU-145 prostate is > 100 µM and 34.9 µM; in the test with K-562 leukemia, over 100 µM; in the test on LOX IMVI melanoma it was 17.6 µM and 13.6 µM; in the test with RPMI-8226 leukemia, 13.8 µM and 20 µM; in the test with SK-MEL-2 melanoma, 29.1 µM and 10.8 µM; in the test on SNB-19 CNS it was > 95.9 µM and 40.3 µM. Besides, the TGI is 43.8 µM in the test with T-47D breast; 38.9 µM and 43.3 µM in the test with UO-31 renal.
As for `CN1CC(C(=O)NC2(C)OC3(O)C4CCCN4C(=O)C(Cc4ccccc4)N3C2=O)C=C2c3cccc4[nH]cc(c34)CC21` (stereo unspecified), the TGI in the test on DU-145 prostate is 67.8 µM; with K-562 leukemia it was over 100 µM; with LOX IMVI melanoma, 35.9 µM; in the test with RPMI-8226 leukemia it was over 100 µM; in the test on SK-MEL-2 melanoma it was 35.1 µM; in the test on SNB-19 CNS, over 100 µM. Also, the TGI with T-47D breast is over 100 µM; in the test on UO-31 renal it was 77.9 µM.
`COc1cc(C(=O)N/N=C/c2cccc([N+](=O)[O-])c2)cc(OC)c1OC`: the GI50 is 7.1 µM with DU-145 prostate; 0.872 µM in the test on K-562 leukemia; 4.69 µM in the test on LOX IMVI melanoma; 5.39 µM in the test with RPMI-8226 leukemia; 4.16 µM in the test on SK-MEL-2 melanoma; 55.1 µM with SNB-19 CNS. In addition, the GI50 was 35.6 µM in the test with T-47D breast and 5.2 µM with UO-31 renal. The TGI in the test with DU-145 prostate, with K-562 leukemia, in the test on LOX IMVI melanoma, in the test on RPMI-8226 leukemia, with SK-MEL-2 melanoma and in the test on SNB-19 CNS was over 100 µM in each case. Also, the TGI in the test on T-47D breast and in the test with UO-31 renal was over 100 µM each time.
Turning to `O=[N+]([O-])O.[NH-]C1CCCCC1[NH-].[NH-]C1CCCCC1[NH-].[NH-]C1CCCCC1[NH-].[OH-].[OH-].[OH-].[Pt+4].[Pt+4].[Pt+4]` (stereo unspecified), the GI50 with DU-145 prostate is 1.35 µM; in the test on K-562 leukemia it was 0.452 µM; in the test with LOX IMVI melanoma, 0.467 µM; in the test with RPMI-8226 leukemia, 0.0311 µM; in the test with SK-MEL-2 melanoma, 2.05 µM; with SNB-19 CNS, 1.06 µM. Besides, the GI50 with T-47D breast was 1.08 µM; with UO-31 renal it was 0.373 µM. In addition, the TGI in the test with DU-145 prostate is 50 µM; in the test with K-562 leukemia it was over 100 µM; in the test on LOX IMVI melanoma it was over 85.7 µM; in the test on RPMI-8226 leukemia, over 24.2 µM; with SK-MEL-2 melanoma, 30.5 µM; in the test with SNB-19 CNS, over 58.9 µM. For the same molecule, the results for the TGI in the test with T-47D breast and in the test on UO-31 renal were over 83.9 µM and 15.5 µM, respectively.
For the molecule `CC(C)C[C@H](NC(=O)[C@@H](O)[C@H](N)Cc1ccccc1)C(=O)O`, the TGI in the test on DU-145 prostate, in the test on K-562 leukemia, in the test on LOX IMVI melanoma, in the test on RPMI-8226 leukemia, with SK-MEL-2 melanoma and with SNB-19 CNS was over 100 µM each time. Also, the TGI with T-47D breast and in the test with UO-31 renal was over 100 µM throughout. Moreover, the GI50 in the test on UO-31 renal is over 100 µM.
Turning to `CC(C)(C)c1ccc(S(=O)(=O)N[C@H]2CC[C@H]3[C@@H]4CCc5cc(O)ccc5[C@H]4CC[C@]23C)cc1`, the GI50 is 3.93 µM in the test on DU-145 prostate; 2.46 µM with K-562 leukemia; 1.77 µM in the test with LOX IMVI melanoma; 1.88 µM in the test with RPMI-8226 leukemia; 2.45 µM in the test on SK-MEL-2 melanoma; 3.54 µM in the test on SNB-19 CNS. Also, the GI50 in the test on T-47D breast is 2.59 µM; with UO-31 renal, 1.81 µM. The TGI in the test with DU-145 prostate turned out to be 12.9 µM; with K-562 leukemia it was 8.64 µM; in the test with LOX IMVI melanoma, 3.17 µM; in the test on RPMI-8226 leukemia it was 4.51 µM; with SK-MEL-2 melanoma, 4.89 µM; in the test on SNB-19 CNS it was 18 µM. Besides, the TGI in the test on T-47D breast came out at 8.76 µM; with UO-31 renal, 4.11 µM.
As for `CC(C)(C)NCCC(O)c1cc(C(F)(F)F)nc2c(C(F)(F)F)cccc12` (stereo unspecified), the TGI in the test on DU-145 prostate was 6.17 µM; with K-562 leukemia, 19.9 µM; in the test with LOX IMVI melanoma, 5.31 µM; in the test with RPMI-8226 leukemia it was 17.1 µM; with SK-MEL-2 melanoma, 24.6 µM; in the test on SNB-19 CNS it was 27.3 µM. The TGI in the test with T-47D breast turned out to be 30.9 µM; with UO-31 renal, 1.34 µM.
`COC1C(CO)OC(n2c3ccccc3c3c4c(c5c6ccccc6[nH]c5c32)C(=O)NC4=O)C(O)C1OC(=O)C(N)CCCCN` (stereo unspecified): the GI50 is 0.659 µM in the test with DU-145 prostate; 0.414 µM in the test on K-562 leukemia; 0.261 µM with LOX IMVI melanoma; over 15.7 µM in the test on RPMI-8226 leukemia; 1.93 µM in the test on SK-MEL-2 melanoma; 1.31 µM with SNB-19 CNS. The GI50 with UO-31 renal is 0.997 µM. For the same molecule, the TGI in the test with DU-145 prostate was 4.05 µM; in the test on K-562 leukemia, over 50 µM; in the test with RPMI-8226 leukemia, over 35.5 µM; in the test with SK-MEL-2 melanoma it was 9.91 µM; with SNB-19 CNS, over 50 µM; in the test on T-47D breast, over 10.3 µM. In the test with UO-31 renal, this molecule yielded a TGI of 5.5 µM.
As for `CC(C)n1nc(C#Cc2cccc(NC(=O)c3cccc(C(F)(F)F)c3)c2)c2c(N)ncnc21`, the GI50 in the test with DU-145 prostate was 2.78 µM; with LOX IMVI melanoma it was 0.204 µM; in the test with RPMI-8226 leukemia, 2.26 µM; with SK-MEL-2 melanoma it was 0.308 µM; with SNB-19 CNS it was 4.21 µM; in the test with T-47D breast it was 3.22 µM. The GI50 with UO-31 renal was 0.601 µM. In addition, the TGI is 12.3 µM with DU-145 prostate; over 100 µM in the test on K-562 leukemia; 1.04 µM in the test on LOX IMVI melanoma; 16.7 µM with RPMI-8226 leukemia; 1.96 µM with SK-MEL-2 melanoma; over 100 µM in the test with SNB-19 CNS. In addition, the TGI came to 17.5 µM in the test with T-47D breast and 6.1 µM with UO-31 renal.
Take `CCc1nc(N)nc(N)c1-c1ccc([N+](=O)[O-])c(Cl)c1`: the TGI with DU-145 prostate, with K-562 leukemia, in the test with LOX IMVI melanoma, with RPMI-8226 leukemia, in the test with SK-MEL-2 melanoma and in the test on SNB-19 CNS was over 100 µM throughout. The TGI in the test on T-47D breast and in the test on UO-31 renal was over 100 µM each time.

(Values after PubChem BioAssay (NCI).)
